From patent US20180071317A1, “USE OF AGENTS THAT ALTER THE PERITUMORAL ENVIRONMENT FOR THE TREATMENT OF CANCER” (SERVICIO ANDALUZ DE SALUD, priority 2011, published 2018)

Key:
[1] = test system: fibroblasts of tumors produced by lung carcinoma non small cell human (HCC-44) cells; assay: Marker expression (IHC) in fibroblasts of tumor or peritumoral area, mouse model, HCC-44; assay type: in vivo; details: HCC-44 tumors in mice, 30 mg/kg/day oral, 7 days
Method: The expression on fibroblast cells obtained in the animal model was analyzed by immunohistochemistry, of the above markers: TGF-α, TGF-β1, TGF-β2, TGF-β3, MMP-7, MMP-1 1, MMP-14MP-14. […] This process was realized in mice treated with non-peptide antagonists of NK1 receptor and in untreated animals (control).

[2] = test system: fibroblast cells in co-culture with cells isolated from primary human tumors; assay: Marker expression (IHC) in fibroblasts co-cultured with primary human tumor cells (colon, pancreatic, lung carcinoma, glioma, multiple myeloma); assay type: cell-based
Method: To check that the interaction of the human primary tumor cells with stromal cells, [human fibroblasts,] stimulates the secretion of substances of importance for survival and tumor progression, co-cultures were performed using stromal cells with human fibroblast-tumor cells obtained directly from primary human tumors.
On this occasion, in order to identify, using immunohistochemical techniques, the secretion of substances of importance for the survival and progression of tumors, the following antibodies were used: TGF-α (SAB4502953), TGF-β1 (SAB4502954), TGF-β2 (SAB4502956), TGF-β3 (SAB4502957), SPARC (HPA002989), MMP-3 (HPA007875), MMP-7 (SAB4501894), MMP-9 (SAB4501896), MMP-11 (SAB4501898) MMP-13 (SAB4501900) and MMP-14 (SAB4501901) using specific antibodies against them. All antibodies used were rabbit polyclonal antibodies obtained from Sigma-Aldrich and were used at a concentration of 1/1000 to achieve these immunohistochemical studies. All experiments were carried out sixfold.

[3] = test system: fibroblasts of tumors produced by human glioma tumor line (GAMG); assay: Marker expression (IHC) in fibroblasts of tumor or peritumoral area, mouse model, GAMG; assay type: in vivo; details: GAMG tumors in mice, 30 mg/kg/day oral, 7 days
Method: (§1) In vitro tests conducted in Example 5 are now carried out in an experimental model in mice in vivo. […] Subsequently, the expression in fibroblasts tumoral and peritumoral area of molecular markers associated with progression and maintenance of tumors: TGF-α, TGF-β1, TGF-β2, TGF-β3, MMP-7, MMP-11, MMP-14 were analyzed by immunohistochemistry.
(§2) Were injected with 2×10^7 cells tumors (corresponding, in each case to each of the tumor types as specified in Table 9) in 200 of PBS subcutaneously μl. […] Mice were randomized into two groups when the tumors reached a volume of 75 mm^3 One group was treated with non-peptide receptor antagonists NK1 and the other with placebo 200μ1. […] Tumors and samples of non-neoplastic stromal areas remote from the tumor were halved, formalin fixed (4%) and then were included in paraffin blocks for analysis by immunohistochemistry.
(§3) The expression on fibroblast cells obtained in the animal model was analyzed by immunohistochemistry, of the above markers: TGF-α, TGF-β1, TGF-β2, TGF-β3, MMP-7, MMP-1 1, MMP-14MP-14. Tables 32 to 35 depict the type of label used and the average percentage of fibroblasts present in non-tumor areas, tumor and peritumoral (±SD) which were expressing the marker shown in each of the tumor types developed from of the different cell lines used. This process was realized in mice treated with non-peptide antagonists of NK1 receptor and in untreated animals (control).

[4] = test system: fibroblasts (PHF) co-cultured with tumor cells of human pancreatic adenocarcinoma (CAPAN-1); assay: Marker expression (IHC) in PHF co-cultured with CAPAN-1 tumor cells; assay type: cell-based; details: co-culture with CAPAN-1; SP 1 μM + antagonist 1 μM; 48 h;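 also: cultures grown in fresh plasma from a healthy human donor, run in six replicates, value is percent of fibroblasts positive for each marker, compared with fibroblasts cultured alone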
Method: (§4) All cultures were maintained 48 hours, following which the same cells were included in paraffin blocks for subsequent analysis of the expression of different markers by immunohistochemistry (see Example 1). The primary antibodies used to perform immunohistochemical assays and their concentration are detailed in Example 2. All experiments were carried out sixfold. Analyzed markers in fibroblast cells (stromal cells) were: TGF-α, TGF-β1, TGF-β2, TGF-β3, SPARC, MMP-3, MMP-7, MMP-9, MMP-11, MMP-13 and MMP-14.

[5] = test system: tumor cells from primary human tumors (PI3 Kinase pathway); assay: Proliferation of primary human tumor cells (AKT modified or unchanged) alone or with stromal fibroblasts; assay type: cell-based; details: antagonist 1 μM
[6] = test system: fibroblasts (PHF) cells co-cultured with human T lymphoma tumor (DERL-7); assay: Marker expression (IHC) in PHF co-cultured with DERL-7 tumor cells; assay type: cell-based; details: PHF co-cultured with DERL-7 + SP + NK1 antagonist
Method: as §4

[7] = test system: fibroblasts of tumors produced by tumor cell line of human melanoma (MEL HO); assay: Marker expression (IHC) in fibroblasts of tumor or peritumoral area, mouse model, MEL HO; assay type: in vivo; details: MEL HO tumors in mice, 30 mg/kg/day oral, 7 days
Method: as §1, §2, §3

[8] = Primary tumor cells (colon carcinoma) co-cultured + fibroblast + SP (1 μM) + NK1 antagonist 1 μM
[9] = co-culture with cells isolated from glioma, SP 1 μM + antagonist 1 μM
[10] = co-culture with cells isolated from lung cancer, SP 1 μM + antagonist 1 μM
[11] = co-culture with cells isolated from multiple myeloma, SP 1 μM + antagonist 1 μM
[12] = co-culture with cells isolated from pancreatic carcinoma, SP 1 μM + antagonist 1 μM

Q: How did the “fibroblasts expressing MMP-7” value [1] turn out when `C[C@@H](O[C@H]1OCCN(Cc2n[nH]c(=O)[nH]2)[C@H]1c1ccc(F)cc1)c1cc(C(F)(F)F)cc(C(F)(F)F)c1` [Aprepitant] was run?
A: 0%

Q: What about the “fibroblasts expressing MMP-11” value [1] of the same compound?
A: 0%

Q: What about the “fibroblasts expressing MMP-14” value [1] of the same compound?
A: 0%

Q: What about the “fibroblasts expressing TGF-α” value [1] of the same compound?
A: 0%

Q: What about the “fibroblasts expressing TGF-β 1” value [1] of the same compound?
A: 0%

Q: What about the “fibroblasts expressing TGF-β 2” value [1] of the same compound?
A: 0%

Q: What about the “fibroblasts expressing TGF-β 3” value [1] of the same compound?
A: 0%

Q: And the “Percentage of fibroblast cells which expressed MMP-3” value (from here on “Percentage … expressed MMP-3”) [2, 8]?
A: 0%

Q: And the “Percentage of fibroblast cells which expressed MMP-7” value (shortened to “Percentage … expressed MMP-7”) [2, 8]?
A: 0%

Q: And the “Percentage of fibroblast cells which expressed MMP-9” value (“Percentage … expressed MMP-9” below) [2, 8]?
A: 0%

Q: And the “Percentage of fibroblast cells which expressed MMP-11” value (from here on “Percentage … expressed MMP-11”) [2, 8]?
A: 0%

Q: What about the “Percentage of fibroblast cells which expressed MMP-13” value (“Percentage … expressed MMP-13” below) [2, 8] of the same compound?
A: 0%

Q: And the “Percentage of fibroblast cells which expressed MMP-14” value (shortened to “Percentage … expressed MMP-14”) [2, 8]?
A: 0%

Q: What about the “Percentage of fibroblast cells which expressed SPARC” value (“Percentage … expressed SPARC” for short) [2, 8] of the same compound?
A: 0%

Q: What about the “Percentage of fibroblast cells which expressed TGFα” value (shortened to “Percentage … expressed TGFα”) [2, 8] of the same compound?
A: 0%

Q: What about the “Percentage of fibroblast cells which expressed TGFβ1” value (shortened to “Percentage … expressed TGFβ1”) [2, 8] of the same compound?
A: 0%

Q: What about the “Percentage of fibroblast cells which expressed TGFβ2” value (“Percentage … expressed TGFβ2” below) [2, 8] of the same compound?
A: 0%

Q: What about the “Percentage of fibroblast cells which expressed TGFβ3” value (from here on “Percentage … expressed TGFβ3”) [2, 8] of the same compound?
A: 0%

Q: What about the “Percentage … expressed MMP-3” value [2, 9] of the same compound?
A: 0%

Q: What about the “Percentage … expressed MMP-7” value [2, 9] of the same compound?
A: 0%

Q: And the “Percentage … expressed MMP-9” value [2, 9]?
A: 0%

Q: What about the “Percentage … expressed MMP-11” value [2, 9] of the same compound?
A: 0%

Q: What about the “Percentage … expressed MMP-13” value [2, 9] of the same compound?
A: 0%

Q: And the “Percentage … expressed MMP-14” value [2, 9]?
A: 0%

Q: What about the “Percentage … expressed SPARC” value [2, 9] of the same compound?
A: 0%

Q: And the “Percentage … expressed TGFα” value [2, 9]?
A: 0%

Q: What about the “Percentage … expressed TGFβ1” value [2, 9] of the same compound?
A: 0%

Q: And the “Percentage … expressed TGFβ2” value [2, 9]?
A: 0%

Q: And the “Percentage … expressed TGFβ3” value [2, 9]?
A: 0%

Q: What about the “Percentage … expressed MMP-3” value [2, 10] of the same compound?
A: 0%

Q: What about the “Percentage … expressed MMP-7” value [2, 10] of the same compound?
A: 0%

Q: And the “Percentage … expressed MMP-9” value [2, 10]?
A: 0%

Q: And the “Percentage … expressed MMP-11” value [2, 10]?
A: 0%

Q: What about the “Percentage … expressed MMP-13” value [2, 10] of the same compound?
A: 0%

Q: What about the “Percentage … expressed MMP-14” value [2, 10] of the same compound?
A: 0%

Q: And the “Percentage … expressed SPARC” value [2, 10]?
A: 0%

Q: What about the “Percentage … expressed TGFα” value [2, 10] of the same compound?
A: 0%

Q: And the “Percentage … expressed TGFβ1” value [2, 10]?
A: 0%

Q: And the “Percentage … expressed TGFβ2” value [2, 10]?
A: 0%

Q: What about the “Percentage … expressed TGFβ3” value [2, 10] of the same compound?
A: 0%

Q: What about the “Percentage … expressed MMP-3” value [2, 11] of the same compound?
A: 0%

Q: What about the “Percentage … expressed MMP-7” value [2, 11] of the same compound?
A: 0%

Q: And the “Percentage … expressed MMP-9” value [2, 11]?
A: 0%

Q: And the “Percentage … expressed MMP-11” value [2, 11]?
A: 0%

Q: What about the “Percentage … expressed MMP-13” value [2, 11] of the same compound?
A: 0%

Q: And the “Percentage … expressed MMP-14” value [2, 11]?
A: 0%

Q: What about the “Percentage … expressed SPARC” value [2, 11] of the same compound?
A: 0%

Q: What about the “Percentage … expressed TGFα” value [2, 11] of the same compound?
A: 0%

Q: And the “Percentage … expressed TGFβ1” value [2, 11]?
A: 0%

Q: What about the “Percentage … expressed TGFβ2” value [2, 11] of the same compound?
A: 0%

Q: And the “Percentage … expressed TGFβ3” value [2, 11]?
A: 0%

Q: And the “Percentage … expressed MMP-3” value [2, 12]?
A: 0%

Q: What about the “Percentage … expressed MMP-7” value [2, 12] of the same compound?
A: 0%

Q: And the “Percentage … expressed MMP-9” value [2, 12]?
A: 0%

Q: And the “Percentage … expressed MMP-11” value [2, 12]?
A: 0%

Q: What about the “Percentage … expressed MMP-13” value [2, 12] of the same compound?
A: 0%

Q: And the “Percentage … expressed MMP-14” value [2, 12]?
A: 0%

Q: What about the “Percentage … expressed SPARC” value [2, 12] of the same compound?
A: 0%

Q: And the “Percentage … expressed TGFα” value [2, 12]?
A: 0%

Q: And the “Percentage … expressed TGFβ1” value [2, 12]?
A: 0%

Q: And the “Percentage … expressed TGFβ2” value [2, 12]?
A: 0%

Q: What about the “Percentage … expressed TGFβ3” value [2, 12] of the same compound?
A: 0%

Q: What about the “fibroblasts expressing MMP-7” value [3] of the same compound?
A: 0%

Q: And the “fibroblasts expressing MMP-11” value [3]?
A: 0%

Q: And the “fibroblasts expressing MMP-14” value [3]?
A: 0%

Q: And the “fibroblasts expressing TGF-α” value [3]?
A: 0%

Q: What about the “fibroblasts expressing TGF-β 1” value [3] of the same compound?
A: 0%

Q: And the “fibroblasts expressing TGF-β 2” value [3]?
A: 0%

Q: And the “fibroblasts expressing TGF-β 3” value [3]?
A: 0%

Q: What about the “PHF cells expressing MMP-3” value [4] of the same compound?
A: 0%

Q: And the “PHF cells expressing MMP-7” value [4]?
A: 0%

Q: What about the “PHF cells expressing MMP-9” value [4] of the same compound?
A: 0%

Q: And the “PHF cells expressing MMP-11” value [4]?
A: 0%

Q: And the “PHF cells expressing MMP-13” value [4]?
A: 0%

Q: And the “PHF cells expressing MMP-14” value [4]?
A: 0%

Q: What about the “PHF cells expressing SPARC” value [4] of the same compound?
A: 0%

Q: What about the “PHF cells expressing TGF-α” value [4] of the same compound?
A: 0%

Q: What about the “PHF cells expressing TGF-β1” value [4] of the same compound?
A: 0%

Q: And the “PHF cells expressing TGF-β2” value [4]?
A: 0%

Q: What about the “PHF cells expressing TGF-β3” value [4] of the same compound?
A: 0%

Q: And the “growth of primary tumor cells cultured alone (in words)” value ([5]; AKT modified or unchanged)?
A: only inhibits the growth of cells in which said receptor acts through the PI3 Kinase pathway

Q: What about the “proliferation of primary tumor cells co-cultured with stromal fibroblasts (in words)” value ([5]; irrespective of PI3 kinases pathway integrity) of the same compound?
A: produces a proliferation of inhibition of tumor cells

Q: And the “cells expressing MMP-3” value [6]?
A: 0%

Q: And the “cells expressing MMP-7” value [6]?
A: 0%

Q: And the “cells expressing MMP-9” value [6]?
A: 0%

Q: And the “cells expressing MMP-11” value [6]?
A: 0%

Q: And the “cells expressing MMP-13” value [6]?
A: 0%

Q: And the “cells expressing MMP-14” value [6]?
A: 0%

Q: What about the “cells expressing SPARC” value [6] of the same compound?
A: 0%

Q: What about the “cells expressing TGF-α” value [6] of the same compound?
A: 0%

Q: And the “cells expressing TGF-β1” value [6]?
A: 0%

Q: What about the “cells expressing TGF-β2” value [6] of the same compound?
A: 0%

Q: And the “cells expressing TGF-β3” value [6]?
A: 0%

Q: What about the “fibroblasts expressing MMP-7” value [7] of the same compound?
A: 0%

Q: What about the “fibroblasts expressing MMP-11” value [7] of the same compound?
A: 0%

Q: And the “fibroblasts expressing MMP-14” value [7]?
A: 0%

Q: And the “fibroblasts expressing TGF-α” value [7]?
A: 0%

Q: And the “fibroblasts expressing TGF-β 1” value [7]?
A: 0%

Q: What about the “fibroblasts expressing TGF-β 2” value [7] of the same compound?
A: 0%

Q: And the “fibroblasts expressing TGF-β 3” value [7]?
A: 0%
